According to patent US20240024273A1, “TOPICAL ADMINISTRATION OF 2-(DIETHYLAMINO)ETHYL 2-(4-ISOBUTYLPHENYL)PROPRIONATE FOR TREATMENT OF DISEASES” (TECHFIELDS PHARMA CO., LTD., priority 2020, published 2024):

Test system: Subjects with Osteoarthritis of the Knee
Test: Second Phase 2 study: safety (treatment-emergent adverse events)
Type: in vivo, human
Source text: Safety assessments will be performed at each visit and will include assessment of AEs, vital signs (blood pressure, pulse rate, and oral temperature), clinical laboratories, physical examination, skin irritation, and electrocardiograms (ECGs) as indicated in the study flow chart, Table 47.
Safety assessments will include AEs, vital signs (blood pressures, pulse rate, and oral temperature), clinical laboratories, physical examination, skin irritation, and ECGs at various time points during the study as indicated in the study flow chart.
Adverse events of interest include: local skin reactions around the treated knee(s), upper stomach pain, GI bleeding, serious cardiovascular side effects (e.g., thrombotic events, myocardial infarction, or stroke), jaundice, elevated liver function tests, and nausea.
Safety analyses will be conducted on the SAS. Safety parameters will be listed and summarized using standard descriptive statistics, as appropriate. No formal statistical analyses are planned.

## CCN(CC)CCOC(=O)C(C)c1ccc(CC(C)C)cc1 (stereo not drawn) [2-(diethylamino)ethyl 2-(4-isobutylphenyl)propionate]
8.75 mg/knee, BID, N = 70
  Abdominal Discomfort: percentage of subjects with adverse events: 4.3%
  Abdominal Discomfort: subjects with adverse events: 3
  Abdominal Pain Upper: number of adverse events: 1
  Abdominal Pain Upper: percentage of subjects with adverse events: 1.4%
  Abdominal Pain Upper: subjects with adverse events: 1
  Administration Site Conditions: number of adverse events: 1
  Administration Site Conditions: percentage of subjects with adverse events: 1.4%
  Administration Site Conditions: subjects with adverse events: 1
  Alanine Aminotransferase Increased: number of adverse events: 1
  Alanine Aminotransferase Increased: percentage of subjects with adverse events: 1.4%
  Alanine Aminotransferase Increased: subjects with adverse events: 1
  Application Site Irritation: number of adverse events: 1
  Application Site Irritation: percentage of subjects with adverse events: 1.4%
  Application Site Irritation: subjects with adverse events: 1
  Back Pain: number of adverse events: 2(%)[2]
  Back Pain: subjects with adverse events, number (percentage): 2(%)[2]
  Blood Lactate Dehydrogenase Increased: number of adverse events: 1
  Blood Lactate Dehydrogenase Increased: percentage of subjects with adverse events: 1.4%
  Blood Lactate Dehydrogenase Increased: subjects with adverse events: 1
  Diarrhoea: number of adverse events: 2
  Diarrhoea: percentage of subjects with adverse events: 2.9%
  Diarrhoea: subjects with adverse events: 2
  Dizziness: number of adverse events: 2
  Dizziness: subjects with adverse events, number (percentage): 2(2.9%)
  Ear and Labyrinth Disorders: number of adverse events: 2
  Ear and Labyrinth Disorders: percentage of subjects with adverse events: 2.9%
  Ear and Labyrinth Disorders: subjects with adverse events: 2
  Frequency of Positive Fecal Occult Blood Test: 6
  Gastrointestinal Disorders: number of adverse events: 11
  Gastrointestinal Disorders: percentage of subjects with adverse events: 14.3%
  Gastrointestinal Disorders: subjects with adverse events: 10
  Headache: number of adverse events: 6
  Headache: subjects with adverse events, number (percentage): 4(5.7%)
  Hypercholesterolaemia: number of adverse events: 5
  Hypercholesterolaemia: percentage of subjects with adverse events: 7.1%
  Hypercholesterolaemia: subjects with adverse events: 5
  Hypertension: number of adverse events: 1
  Hypertension: percentage of subjects with adverse events: 1.4%
  Hypertension: subjects with adverse events: 1
  Hypertriglyceridemia: number of adverse events: 3
  Hypertriglyceridemia: percentage of subjects with adverse events: 4.3%
  Hypertriglyceridemia: subjects with adverse events: 3
  Hypoaesthesia: number of adverse events: 1
  Hypoaesthesia: subjects with adverse events, number (percentage): 1(1.4%)
  Infections and Infestations: number of adverse events: 20
  Infections and Infestations: subjects with adverse events, number (percentage): 20(28.6%)
  Influenza: number of adverse events: 1
  Influenza: subjects with adverse events, number (percentage): 1(1.4%)
  Investigations: number of adverse events: 5
  Investigations: percentage of subjects with adverse events: 7.1%
  Investigations: subjects with adverse events: 5
  Joint Stiffness: number of adverse events: 1(%)[1]
  Joint Stiffness: subjects with adverse events, number (percentage): 1(%)[1]
  Metabolism and Nutrition Disorders: number of adverse events: 8
  Metabolism and Nutrition Disorders: percentage of subjects with adverse events: 12.9%
  Metabolism and Nutrition Disorders: subjects with adverse events: 8
  Musculoskeletal and Connective Tissue Disorders, Overall Total: number of adverse events: 7
  Musculoskeletal and Connective Tissue Disorders, Overall Total: subjects with adverse events, number (percentage): 7(10.0%)
  Nausea: number of adverse events: 3
  Nausea: percentage of subjects with adverse events: 4.3%
  Nausea: subjects with adverse events: 3
  Neck Pain: number of adverse events: 3(%)[3]
  Neck Pain: subjects with adverse events, number (percentage): 3(%)[3]
  Nervous System Disorders: number of adverse events: 8
  Nervous System Disorders: subjects with adverse events, number (percentage): 7(10.0%)
  Oropharyngeal Pain: number of adverse events: 2
  Oropharyngeal Pain: subjects with adverse events, number (percentage): 2(1.4%)
  Pain in Extremity: number of adverse events: 1(%)[1]
  Pain in Extremity: subjects with adverse events, number (percentage): 1(%)[1]
  Respiratory, Thoracic and Mediastinal Disorders: number of adverse events: 3
  Respiratory, Thoracic and Mediastinal Disorders: subjects with adverse events, number (percentage): 3(4.3%)
  Skin Irritation: number of adverse events: 1
  Skin Irritation: percentage of subjects with adverse events: 1.4%
  Skin Irritation: subjects with adverse events: 1
  Skin and Subcutaneous Tissue Disorders: number of adverse events: 1
  Skin and Subcutaneous Tissue Disorders: percentage of subjects with adverse events: 1.4%
  Skin and Subcutaneous Tissue Disorders: subjects with adverse events: 1
  Subjects with Positive Fecal Occult Blood Test: 5
  Subjects with Positive Fecal Occult Blood Test, percentage: 7.1%
  Throat Irritation: number of adverse events: 1
  Throat Irritation: subjects with adverse events, number (percentage): 1(1.4%)
  Thrombosis: number of adverse events: 1
  Thrombosis: percentage of subjects with adverse events: 1.4%
  Thrombosis: subjects with adverse events: 1
  Tooth Infection: number of adverse events: 1
  Tooth Infection: subjects with adverse events, number (percentage): 1(1.4%)
  Toothache: number of adverse events: 1
  Toothache: percentage of subjects with adverse events: 1.4%
  Toothache: subjects with adverse events: 1
  Transaminases Increased: number of adverse events: 1
  Transaminases Increased: percentage of subjects with adverse events: 1.4%
  Transaminases Increased: subjects with adverse events: 1
  Upper Respiratory Tract Infection: number of adverse events: 12
  Upper Respiratory Tract Infection: subjects with adverse events, number (percentage): 12(15.7%)
  Urinary Tract Infection: number of adverse events: 6
  Urinary Tract Infection: subjects with adverse events, number (percentage): 6(8.6%)
  Vascular Disorders: number of adverse events: 2
  Vascular Disorders: percentage of subjects with adverse events: 2.9%
  Vascular Disorders: subjects with adverse events: 2
  Vertigo: number of adverse events: 2(%)[2]
  Vertigo: subjects with adverse events: 2(%)[2]
  White Blood Cell Count Decreased: number of adverse events: 2
  White Blood Cell Count Decreased: percentage of subjects with adverse events: 2.9%
  White Blood Cell Count Decreased: subjects with adverse events: 2
17.5 mg/knee (BID)
  GI disorders incidence rate: 5.7%
  incidence rate of AEs possibly, probably, or definitely related to study drug: 35.7%
  infections and infestations incidence rate: 18.6%
  positive fecal occult blood test incidence rate: 7.1%
17.5 mg/knee, BID, N = 70
  Abdominal Discomfort: number of adverse events: 1
  Abdominal Discomfort: percentage of subjects with adverse events: 1.4%
  Abdominal Discomfort: subjects with adverse events: 1
  Abdominal Pain Upper: number of adverse events: 2
  Abdominal Pain Upper: percentage of subjects with adverse events: 1.4%
  Abdominal Pain Upper: subjects with adverse events: 1
  Administration Site Conditions: number of adverse events: 4
  Administration Site Conditions: percentage of subjects with adverse events: 5.7%
  Administration Site Conditions: subjects with adverse events: 4
  Application Site Irritation: number of adverse events: 1
  Application Site Irritation: percentage of subjects with adverse events: 1.4%
  Application Site Irritation: subjects with adverse events: 1
  Application Site Rash: number of adverse events: 3
  Application Site Rash: percentage of subjects with adverse events: 4.3%
  Application Site Rash: subjects with adverse events: 3
